The record followed here is ChEMBL document CHEMBL1121720, “Future directions in dopaminergic nervous system and dopaminergic agonists” (J Med Chem, 1981).

For the assay, the target named is T1, Renin (Rattus norvegicus) (UniProt P08424).
T1 sequence (whole entry): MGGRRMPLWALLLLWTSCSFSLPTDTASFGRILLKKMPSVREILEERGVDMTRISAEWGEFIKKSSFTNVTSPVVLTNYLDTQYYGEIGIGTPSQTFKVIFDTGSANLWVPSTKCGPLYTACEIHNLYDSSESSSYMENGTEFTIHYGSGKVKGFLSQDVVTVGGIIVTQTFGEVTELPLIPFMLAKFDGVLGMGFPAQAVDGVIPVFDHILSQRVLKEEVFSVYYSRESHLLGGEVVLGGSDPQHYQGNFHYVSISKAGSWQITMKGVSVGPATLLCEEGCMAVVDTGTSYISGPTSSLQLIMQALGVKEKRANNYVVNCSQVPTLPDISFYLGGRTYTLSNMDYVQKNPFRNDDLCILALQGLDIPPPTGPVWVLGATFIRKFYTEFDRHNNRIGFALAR
As to the kind of experiment: Compound was evaluated for its ability to reduce plasma renin activity; Ranges is 20-40. It is filed as functional, cell-free. More on the design: scale not given: the % may be the effect or the level left.

Regarding `CC(C)C[C@H]1C(=O)N2CCCC2[C@]2(C)O[C@](NC(=O)C3C=C4c5cccc6[nH]c(Br)c(c56)C[C@H]4N(C)C3)(C(C)C)C(=O)N12` (stereo partly specified), the Activity came to 20%.
